{"source": "patent US20250098679A1", "about": "“HERBICIDAL PYRIDONE DERIVATIVES” (SYNGENTA CROP PROTECTION AG, priority 2021, published 2025)", "format_in_all_cases": "in vivo", "conditions_in_all_cases": "evaluated after 13 days", "key": {"Zea mays (ZEAMX) [1]": {"tested_on": "Zea mays (ZEAMX)", "test": "Pre-emergence Test, Zea mays (ZEAMX)"}, "[2]": {"tested_on": "Amaranthus palmeri (AMAPA)", "test": "Post-emergence Test, Amaranthus palmeri (AMAPA)", "set-up": "key: 5=81-100%, 4=61-80%, 3=41-60%, 2=21-40%, 1=0-20% damage", "how_it_was_run": "(§1)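 Application was a spray of acetone/water (50:50) with 0.5% Tween 20 onto pots of test species sown in standard soil. Unless otherwise stated, the rate was 1000 g/ha. After 13 days under glasshouse conditions (24/16 °C, 65% humidity), injury was scored from 1 (0-20%) to 5 (81-100%).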"}, "[3]": {"tested_on": "Amaranthus palmeri (AMAPA)", "test": "Pre-emergence Test, Amaranthus palmeri (AMAPA)"}, "[4]": {"tested_on": "Echinochloa crus-galli (ECHCG)", "test": "Pre-emergence Test, Echinochloa crus-galli (ECHCG)"}, "[5]": {"tested_on": "Echinochloa crus-galli (ECHCG)", "test": "Post-emergence Test, Echinochloa crus-galli (ECHCG)", "set-up": "key to percentage damage caused to the plant, ECHCG (five-point scale): 5=81-100%, 4=61-80%, 3=41-60%, 2=21-40%, 1=0-20% damage", "how_it_was_run": "as §1"}, "[6]": {"tested_on": "Ipomoea hederacea (IPOHE)", "test": "Pre-emergence Test, Ipomoea hederacea (IPOHE)"}, "Zea mays (ZEAMX) [7]": {"tested_on": "Zea mays (ZEAMX)", "test": "Post-emergence Test, Zea mays (ZEAMX)", "set-up": "key to percentage damage caused to the plant, ZEAMX (five-point scale): 5=81-100%, 4=61-80%, 3=41-60%, 2=21-40%, 1=0-20% damage", "how_it_was_run": "as §1"}, "Setaria faberi (SETFA) [8]": {"tested_on": "Setaria faberi (SETFA)", "test": "Post-emergence Test, Setaria faberi (SETFA)", "set-up": "key to percentage damage caused to the plant, SETFA (five-point scale): 5=81-100%, 4=61-80%, 3=41-60%, 2=21-40%, 1=0-20% damage", "how_it_was_run": "as §1"}, "[9]": {"tested_on": "Amaranthus retoflexus (AMARE)", "test": "Pre-emergence Test, Amaranthus retoflexus (AMARE)"}, "[10]": {"tested_on": "Amaranthus retoflexus (AMARE)", "test": "Post-emergence Test, Amaranthus retoflexus (AMARE)", "set-up": "key to percentage damage caused to the plant, AMARE (five-point scale): 5=81-100%, 4=61-80%, 3=41-60%, 2=21-40%, 1=0-20% damage", "how_it_was_run": "as §1"}, "Setaria faberi (SETFA) [11]": {"tested_on": "Setaria faberi (SETFA)", "test": "Pre-emergence Test, Setaria faberi (SETFA)"}, "[12]": {"tested_on": "Ipomoea hederacea (IPOHE)", "test": "Post-emergence Test, Ipomoea hederacea (IPOHE)", "set-up": "key to percentage damage caused to the plant, IPOHE (five-point scale): 5=81-100%, 4=61-80%, 3=41-60%, 2=21-40%, 1=0-20% damage", "how_it_was_run": "as §1"}}, "data": [{"smiles": "CCn1c(Cn2cnc3ncccc32)cc(=O)c(C(=O)O)c1-c1ccc(Cl)c(Cl)c1", "note": "[Compound 125, 2-(3,4-dichlorophenyl)-1-ethyl-6-(imidazo[4,5-b]pyridin-1-ylmethyl)-4-oxo-pyridine-3-carboxylic acid]", "values": [{"measurement": "Pre-emergence Test ZEAMX, percentage damage caused to the plant (five-point scale)", "setting": "Zea mays (ZEAMX) [1]; 250 g/Ha (*)", "value": 0}, {"measurement": "percentage damage caused to the plant, AMAPA (five-point scale)", "setting": "[2]; 250 g/Ha", "value": 0}, {"measurement": "Pre-emergence Test AMAPA, percentage damage caused to the plant (five-point scale)", "setting": "[3]; 250 g/Ha (*)", "value": "1 (1=0-20%)"}, {"measurement": "Pre-emergence Test ECHCG, percentage damage caused to the plant (five-point scale)", "setting": "[4]; 250 g/Ha (*)", "value": 0}, {"measurement": "percentage damage caused to the plant, ECHCG (five-point scale)", "setting": "[5]; 250 g/Ha", "value": "1 (1=0-20%)"}, {"measurement": "Pre-emergence Test IPOHE, percentage damage caused to the plant (five-point scale)", "setting": "[6]; 250 g/Ha (*)", "value": 0}, {"measurement": "percentage damage caused to the plant, ZEAMX (five-point scale)", "setting": "Zea mays (ZEAMX) [7]; 250 g/Ha", "value": "1 (1=0-20%)"}, {"measurement": "percentage damage caused to the plant, SETFA (five-point scale)", "setting": "Setaria faberi (SETFA) [8]; 250 g/Ha", "value": "1 (1=0-20%)"}, {"measurement": "Pre-emergence Test AMARE, percentage damage caused to the plant (five-point scale)", "setting": "[9]; 250 g/Ha (*)", "value": 0}, {"measurement": "percentage damage caused to the plant, AMARE (five-point scale)", "setting": "[10]; 250 g/Ha", "value": "1 (1=0-20%)"}, {"measurement": "Pre-emergence Test SETFA, percentage damage caused to the plant (five-point scale)", "setting": "Setaria faberi (SETFA) [11]; 250 g/Ha (*)", "value": "1 (1=0-20%)"}, {"measurement": "percentage damage caused to the plant, IPOHE (five-point scale)", "setting": "[12]; 250 g/Ha", "value": "1 (1=0-20%)"}]}, {"smiles": "CCn1c(Cn2nc(C)cc2OC)cc(=O)c(C(=O)O)c1-c1ccc(Cl)c(Cl)c1", "note": "[Compound 127, 2-(3,4-dichlorophenyl)-1-ethyl-6-[(5-methoxy-3-methyl-pyrazol-1-yl)methyl]-4-oxo-pyridine-3-carboxylic acid]", "values": [{"measurement": "Pre-emergence Test ZEAMX, percentage damage caused to the plant (five-point scale)", "setting": "Zea mays (ZEAMX) [1]; 250 g/Ha (*)", "value": 0}, {"measurement": "Pre-emergence Test ZEAMX, percentage damage caused to the plant (five-point scale)", "setting": "Zea mays (ZEAMX) [1]; 1000 g/ha", "value": "4 (4=61-80%)"}, {"measurement": "percentage damage caused to the plant, AMAPA (five-point scale)", "setting": "[2]; 250 g/Ha", "value": 0}, {"measurement": "percentage damage caused to the plant, AMAPA (five-point scale)", "setting": "[2]; 1000 g/ha", "value": "3 (3=41-60%)"}, {"measurement": "Pre-emergence Test AMAPA, percentage damage caused to the plant (five-point scale)", "setting": "[3]; 250 g/Ha (*)", "value": "1 (1=0-20%)"}, {"measurement": "Pre-emergence Test AMAPA, percentage damage caused to the plant (five-point scale)", "setting": "[3]; 1000 g/ha", "value": "1 (1=0-20%)"}, {"measurement": "Pre-emergence Test ECHCG, percentage damage caused to the plant (five-point scale)", "setting": "[4]; 250 g/Ha (*)", "value": "1 (1=0-20%)"}, {"measurement": "Pre-emergence Test ECHCG, percentage damage caused to the plant (five-point scale)", "setting": "[4]; 1000 g/ha", "value": "3 (3=41-60%)"}, {"measurement": "percentage damage caused to the plant, ECHCG (five-point scale)", "setting": "[5]; 250 g/Ha", "value": "2 (2=21-40%)"}, {"measurement": "percentage damage caused to the plant, ECHCG (five-point scale)", "setting": "[5]; 1000 g/ha", "value": "4 (4=61-80%)"}, {"measurement": "Pre-emergence Test IPOHE, percentage damage caused to the plant (five-point scale)", "setting": "[6]; 250 g/Ha (*)", "value": 0}, {"measurement": "Pre-emergence Test IPOHE, percentage damage caused to the plant (five-point scale)", "setting": "[6]; 1000 g/ha", "value": "2 (2=21-40%)"}, {"measurement": "percentage damage caused to the plant, ZEAMX (five-point scale)", "setting": "Zea mays (ZEAMX) [7]; 250 g/Ha", "value": "1 (1=0-20%)"}, {"measurement": "percentage damage caused to the plant, ZEAMX (five-point scale)", "setting": "Zea mays (ZEAMX) [7]; 1000 g/ha", "value": "3 (3=41-60%)"}, {"measurement": "percentage damage caused to the plant, SETFA (five-point scale)", "setting": "Setaria faberi (SETFA) [8]; 250 g/Ha", "value": "3 (3=41-60%)"}, {"measurement": "percentage damage caused to the plant, SETFA (five-point scale)", "setting": "Setaria faberi (SETFA) [8]; 1000 g/ha", "value": "3 (3=41-60%)"}, {"measurement": "Pre-emergence Test AMARE, percentage damage caused to the plant (five-point scale)", "setting": "[9]; 250 g/Ha (*)", "value": "1 (1=0-20%)"}, {"measurement": "Pre-emergence Test AMARE, percentage damage caused to the plant (five-point scale)", "setting": "[9]; 1000 g/ha", "value": "2 (2=21-40%)"}, {"measurement": "percentage damage caused to the plant, AMARE (five-point scale)", "setting": "[10]; 250 g/Ha", "value": 0}, {"measurement": "percentage damage caused to the plant, AMARE (five-point scale)", "setting": "[10]; 1000 g/ha", "value": "2 (2=21-40%)"}, {"measurement": "Pre-emergence Test SETFA, percentage damage caused to the plant (five-point scale)", "setting": "Setaria faberi (SETFA) [11]; 250 g/Ha (*)", "value": "3 (3=41-60%)"}, {"measurement": "Pre-emergence Test SETFA, percentage damage caused to the plant (five-point scale)", "setting": "Setaria faberi (SETFA) [11]; 1000 g/ha", "value": "5 (5=81-100%)"}, {"measurement": "percentage damage caused to the plant, IPOHE (five-point scale)", "setting": "[12]; 250 g/Ha", "value": "1 (1=0-20%)"}, {"measurement": "percentage damage caused to the plant, IPOHE (five-point scale)", "setting": "[12]; 1000 g/ha", "value": "3 (3=41-60%)"}]}, {"smiles": "CCn1c(Cn2ccc(C(F)(F)F)n2)cc(=O)c(C(=O)O)c1-c1ccc(Cl)c(C#N)c1", "note": "[Compound 128, 2-(4-chloro-3-cyano-phenyl)-1-ethyl-4-oxo-6-[[3-(trifluoromethyl)pyrazol-1-yl]methyl]pyridine-3-carboxylic acid]", "values": [{"measurement": "Pre-emergence Test ZEAMX, percentage damage caused to the plant (five-point scale)", "setting": "Zea mays (ZEAMX) [1]; 1000 g/ha", "value": 0}, {"measurement": "percentage damage caused to the plant, AMAPA (five-point scale)", "setting": "[2]; 250 g/Ha", "value": 0}, {"measurement": "percentage damage caused to the plant, AMAPA (five-point scale)", "setting": "[2]; 1000 g/ha", "value": "1 (1=0-20%)"}, {"measurement": "Pre-emergence Test AMAPA, percentage damage caused to the plant (five-point scale)", "setting": "[3]; 1000 g/ha", "value": "1 (1=0-20%)"}, {"measurement": "Pre-emergence Test ECHCG, percentage damage caused to the plant (five-point scale)", "setting": "[4]; 1000 g/ha", "value": "1 (1=0-20%)"}, {"measurement": "percentage damage caused to the plant, ECHCG (five-point scale)", "setting": "[5]; 250 g/Ha", "value": "1 (1=0-20%)"}, {"measurement": "percentage damage caused to the plant, ECHCG (five-point scale)", "setting": "[5]; 1000 g/ha", "value": "4 (4=61-80%)"}, {"measurement": "Pre-emergence Test IPOHE, percentage damage caused to the plant (five-point scale)", "setting": "[6]; 1000 g/ha", "value": "1 (1=0-20%)"}, {"measurement": "percentage damage caused to the plant, ZEAMX (five-point scale)", "setting": "Zea mays (ZEAMX) [7]; 250 g/Ha", "value": 0}, {"measurement": "percentage damage caused to the plant, ZEAMX (five-point scale)", "setting": "Zea mays (ZEAMX) [7]; 1000 g/ha", "value": "1 (1=0-20%)"}, {"measurement": "percentage damage caused to the plant, SETFA (five-point scale)", "setting": "Setaria faberi (SETFA) [8]; 250 g/Ha", "value": 0}, {"measurement": "percentage damage caused to the plant, SETFA (five-point scale)", "setting": "Setaria faberi (SETFA) [8]; 1000 g/ha", "value": "3 (3=41-60%)"}, {"measurement": "Pre-emergence Test AMARE, percentage damage caused to the plant (five-point scale)", "setting": "[9]; 1000 g/ha", "value": "1 (1=0-20%)"}, {"measurement": "percentage damage caused to the plant, AMARE (five-point scale)", "setting": "[10]; 250 g/Ha", "value": 0}, {"measurement": "percentage damage caused to the plant, AMARE (five-point scale)", "setting": "[10]; 1000 g/ha", "value": "1 (1=0-20%)"}, {"measurement": "Pre-emergence Test SETFA, percentage damage caused to the plant (five-point scale)", "setting": "Setaria faberi (SETFA) [11]; 1000 g/ha", "value": "3 (3=41-60%)"}, {"measurement": "percentage damage caused to the plant, IPOHE (five-point scale)", "setting": "[12]; 250 g/Ha", "value": "1 (1=0-20%)"}, {"measurement": "percentage damage caused to the plant, IPOHE (five-point scale)", "setting": "[12]; 1000 g/ha", "value": "1 (1=0-20%)"}]}]}
